Assay results from PubChem BioAssay AID2423 (Broad Institute, 2010).
Inconclusive results are not listed. Activity calls are given as the source filed them. No rule for the calls is given here.

Each compound was assayed on C. albicans CaCi-8 + fluconazole, Alamar Blue growth, 48 h (assay: resistant C. albicans growth inhibition with fluconazole, dose response, CaCi-8 strain, Alamar Blue fluorescence (AID 2423)).

Compound | EC50
Cc1ccc(C(=O)CC(=O)COc2ccc(Cl)cc2)cc1 | 2980 nM
CC(C)n1cc(/C=C/c2cc[n+](C)cc2)c2ccccc21 | 3090 nM
CC(=O)NC(c1ccccc1)c1cc(Cl)c2cccnc2c1O (configuration not stated) | 764 nM
COC(CN(C)C(=O)c1ccc2c(c1)NC(=O)c1ccccc1S2)OC | > 15000 nM (inactive)
Nc1c(S(=O)(=O)c2cccc(Cl)c2)c2nc3ccccc3nc2n1/N=C/c1ccc(O)c(O)c1 | 6480 nM
CC1CCN(C(=O)Cn2c3ccccc3c3nc4n(c(=O)c32)CCS4)CC1 | > 16000 nM (inactive)
Cc1ccc(-n2nc(C)c3c(C)cc(=O)[nH]c32)cc1 | 2080 nM
O=Nc1c(O)n(Cc2cccc(Cl)c2)c2ccccc12 | 1200 nM
CC(=O)Nc1ccc(NC(=O)CSc2ccc3nnc(CCNS(=O)(=O)c4ccc(C)cc4)n3n2)cc1 | > 16000 nM (inactive)
CCn1nnnc1NC(=O)c1cc(Cl)c(OC)c(Cl)c1 | 5450 nM
CCn1cc(/C=C/c2cc[n+](C)cc2)c2ccccc21 | 9300 nM
CC(C)CC(=O)NC(=S)NNC(=O)c1ccc(NC(=O)C2CCCCC2)cc1 | 1210 nM
COc1ccc(C2C(C#N)=C(N)Oc3c2ccc2cccnc32)cc1OC (configuration not stated) | 952 nM
C=CCN1C(=O)N/C(=C/c2ccc(N3CCOCC3)o2)C1=O | 796 nM
O=C(NC(=S)NNC(=O)[C@H]1C[C@@H]1c1ccccc1)c1cccc(F)c1 | 2560 nM
Cc1ccc(NC(=O)c2ccccc2NS(=O)(=O)c2ccc(Cl)s2)cc1 | 1160 nM
C=C1C(=O)O[C@@H]2C[C@@H](C)[C@@H]3C4OC4C(=O)[C@@]3(C)[C@@H](O)[C@H]12 (some centres not stated) | 219 nM
O=C(Nc1nnc(-c2ccc(F)cc2)o1)c1cccc([N+](=O)[O-])c1 | 1010 nM
O=[N+]([O-])c1ccc(O)c(P(=O)(c2ccccc2)c2ccccc2)c1 | > 15000 nM (inactive)
NS(=O)(=O)c1ccc(N=Nc2ccc(O)c3ncccc23)cc1 | 1380 nM
Cc1ccc(-c2nc3c(Cl)cc(Cl)cc3c(=O)n2O)cc1 | 1110 nM
Cn1c(SC2=CS(=O)(=O)c3ccccc32)nc2ccccc21 | 2320 nM
O=C(c1cc(-c2ccccc2)n[nH]1)N1CCc2c([nH]c3ccccc23)C1c1ccccn1 (configuration not stated) | 692 nM

Compound | EC50
O=C(N/N=C/c1ccc[nH]1)c1cc2ccccc2cc1O | 3940 nM
COc1cc(NS(=O)(=O)c2ccc3ccccc3c2)c2ncccc2c1 | 2560 nM
O=C(N/N=C/c1cc2c3c(c1O)CCCN3CCC2)c1ccccc1O | 895 nM
O=C(NCc1ccc(F)cc1)c1ccc(CS(=O)(=O)Cc2ccccc2F)o1 | > 15000 nM (inactive)
Cc1cccc(Cc2cnc(N3C(=N)SC(C)C3=O)s2)c1 (configuration not stated) | > 16000 nM (inactive)
CCN(c1ccccc1)S(=O)(=O)c1ccc(C(=O)Nc2nnc(C3CC3)o2)cc1 | 2220 nM
O=c1c2cc(Br)ccc2nc(-c2ccccc2)n1O | 2080 nM
CCCNC(=O)c1ccc2c(=O)c(O)c(-c3ccc(OC)cc3)[nH]c2c1 | 2470 nM
CC(=O)Oc1ccc2c(=O)c(-c3nc4ccccc4s3)coc2c1 | 3520 nM
CCCCCCC[n+]1ccc(-c2cc[n+](CCCCCCC)cc2)cc1 | < 120 nM
Oc1ccc(CN2CCCCC2)c2cccnc12 | 16100 nM
Cc1ccc(NC2=CC(=O)C(=O)c3ccccc32)cc1 | 451 nM
CC1Oc2cc3oc4c(O)c(O)ccc4c(=O)c3c(O)c2C1(C)C (configuration not stated) | 14400 nM
O=C(Nc1nnc(-c2ccccc2)o1)c1cc(-c2cccs2)nc2ccccc12 | 901 nM
CCOC(=O)C(CC)/C(C)=N\NC(=O)c1ccccc1O (configuration not stated) | 7820 nM
O=C(Oc1c(CN2CCOCC2)cc(Cl)c2cccnc12)c1ccc(F)cc1 | 3110 nM
COc1ccc(-n2cc(-c3ccc(C)cc3)[n+]3c2SCC3)cc1 | 2940 nM
CCc1cc(C(=O)NC2CCCc3c2cnn3-c2cccc(C)c2C)n(C)n1 (configuration not stated) | 232 nM
CN1CCc2cc3c(c4c2[C@H]1[C@H](O)c1ccccc1-4)OCO3 | 8200 nM
CCOC(=O)c1ccccc1OCc1cc(/C=N/n2cnnc2)ccc1OC | > 15000 nM (inactive)
Cc1ccc(Nc2nc(NCc3ccco3)c3ccccc3n2)cc1 | 2440 nM
O=C(Nc1ccncc1)c1ccc(Br)cc1 | > 15000 nM (inactive)
CCOC(=O)C1CCN(CCC(=O)Nc2ccc(F)cc2)CC1 | > 15000 nM (inactive)

Compound | EC50
O=C(NCc1ccccc1)C1c2ccccc2Oc2ccccc21 | 6030 nM
O=C1CC(c2ccccc2)CC(=NCCO)/C1=C(\O)CCCN1C(=O)c2ccccc2C1=O (configuration not stated) | > 15000 nM (inactive)
N#Cc1ccc(-c2nc3cc(Cl)ccc3c(=O)n2O)cc1 | 3570 nM
Cc1ccc(C(=O)CC(=O)c2ccccc2C)c(O)c1 | 1900 nM
CNC1=C(N(C(C)=O)c2ccc(Br)cc2)C(=O)c2ccccc2C1=O | 190 nM
CN1C(=O)/C(=C/c2cn(CC(=O)N3CCCCC3)c3ccccc23)NC1=S | > 15000 nM (inactive)
NC(=O)c1ccsc1NC(=O)CCS(=O)(=O)c1ccccc1 | 1730 nM
COc1cccc(C2C(C(=O)c3cc4ccccc4o3)=C(O)C(=O)N2c2cc(C)on2)c1OC (configuration not stated) | 154 nM
COC(=O)C1CCN(Cc2c(C(=O)N3C[C@@H](C)O[C@@H](C)C3)nc3ccc(Cl)cn23)CC1 | > 15000 nM (inactive)
CCCCC(=O)NC(c1ccc(Cl)cc1)c1ccc2cccnc2c1O (configuration not stated) | 502 nM
CC(=O)Nc1cccc(-c2csc(Nc3ccc(C)cn3)n2)c1 | 2260 nM
N#C/C(=C\c1ccc(N2CCOCC2)cc1)c1ccccc1 | 492 nM
C(=C\c1ccccc1)/CN1CCN(c2ncnc3c2oc2ccccc23)CC1 | < 120 nM
O=S(=O)(c1ccc(Cl)s1)N1CCCc2cccc(O)c21 | > 15000 nM (inactive)
COc1ccc2[nH]c3c(C)c4ccncc4c(C)c3c2c1 | 1440 nM
Brc1ccc(N/N=C(/N=Nc2nn[nH]n2)c2ccccc2)cc1 | 5600 nM
Cc1ccccc1C(=O)NNC(=S)NC(=O)c1ccc(Cl)cc1Cl | 1390 nM
O=C(CN1C(=O)/C(=C/c2ccccc2)SC1=S)NNC(=O)c1ccccc1O | > 16000 nM (inactive)
Oc1c(CN2CCN(c3ccccc3)CC2)cc(Br)c2cccnc12 | 1230 nM
COc1cc(C(=O)Oc2c(CN3CCOCC3)cc(Cl)c3cccnc23)cc(OC)c1OC | 2740 nM
O=C(NNC(=O)c1cc2ccccc2cc1O)c1cccs1 | > 15000 nM (inactive)
CCCCCCn1c(=O)c(-c2ccccc2)c(O)c2ccccc21 | 9420 nM
CNCc1ccccc1Sc1ccc(O)c(O)c1 | 6840 nM

Compound | EC50
CCCc1cc(=O)[nH]c(SCc2csc(-c3ccccc3)n2)n1 | 1390 nM
Cc1ccc(NCc2ccc(O)c3ncccc23)cc1C | 13400 nM
CS(=O)(=O)NN1C(=O)c2ccccc2NC1c1cccc2cccnc12 (configuration not stated) | 2130 nM
COc1cc([N+](=O)[O-])cc(/C=N/NC(=O)c2cc(-c3ccccc3)nc3ccccc23)c1O | 1540 nM
CCOc1ccc2c(c1)C(C)=CC(C)(C)N2S(=O)(=O)c1ccc(C)cc1 | > 16000 nM (inactive)
C=C(C)c1cccc(C(C)(C)NC(=O)Nc2ccc(C(N)=O)cc2)c1 | > 15000 nM (inactive)
CCNC(=S)NNC(=O)c1cc(-c2cccc(C)c2)nc2ccccc12 | 2270 nM
Cn1c(=O)n(CC#N)c2ccccc21 | 14800 nM
Cc1ccc(Nc2cc(C)nn2-c2nc(C)cc(=O)[nH]2)cc1 | < 120 nM
Cc1c(N=NC2=C(O)CC(C)(C)CC2=O)c(=O)n(-c2ccccc2)n1C | 14000 nM
CCOC(=O)c1cnc2ccc(C)cc2c1Nc1ccc(N2CCOCC2)cc1 | 1100 nM
O=C(NCc1cccnc1)c1ccc(-c2cccc(Cl)c2Cl)o1 | 1760 nM
CC(=O)NC(CC(=O)NNC(=O)c1cc2ccccc2cc1O)c1ccccc1 (configuration not stated) | 16000 nM
C=CCOc1ccc(/C=C2\SC(=S)N(NS(=O)(=O)c3ccc(C)cc3)C2=O)cc1 | 3290 nM
Nc1nonc1-n1nnc(C(=O)N/N=C/c2cc(Cl)ccc2O)c1CN1CCCCCC1 | 1820 nM
Cc1ccc2c(c1)c(/C=C/c1cc[n+](C)cc1)c(C)n2C | > 16000 nM (inactive)
S=c1[nH]nc(-c2ccccc2)n1/N=C/c1cccs1 | 6130 nM
O=C(NC(c1ccc(Cl)cc1)c1cc(Cl)c2cccnc2c1O)c1cccnc1 (configuration not stated) | 329 nM
O=C(NCc1ccc(Cl)cc1)c1n[nH]c([N+](=O)[O-])c1Cl | > 16000 nM (inactive)
CCCOc1cccc(-c2cc(C(=O)NNC(=S)NCC)c3ccccc3n2)c1 | 891 nM
Cc1ccccc1C(=O)Nc1nnc(-c2ccc(F)cc2)o1 | 624 nM
CCOC(=O)c1ccccc1NC(=O)c1cccc([N+](=O)[O-])c1 | > 15000 nM (inactive)
COc1ccccc1N1CCN(Cc2cc(Br)c(O)c3ncccc23)CC1 | 4490 nM

Compound | EC50
O=C(Nc1nc2ccc(SC(F)F)cc2s1)c1ccc(NS(=O)(=O)c2ccc(F)c(F)c2)cc1 | 1640 nM
CCCOc1cccc(C(=O)Nc2cccnc2)c1 | 2200 nM
CCn1c(O)c(N=NC(=O)c2cccs2)c2ccccc21 | 1320 nM
Cc1ccccc1/C=C1\SC(=S)N(/N=C/c2cc([N+](=O)[O-])ccc2O)C1=O | 4060 nM
CCc1ccc(-c2csc3ncn(Cc4ccc(C(=O)O)cc4)c(=O)c23)cc1 | 954 nM
CCC(=O)NC(c1ccccc1OC)c1ccc2cccnc2c1O (configuration not stated) | 999 nM
CCCn1nnnc1NC(=O)c1ccc2ccccc2c1 | 1660 nM
COc1ccc(OC)c(Nc2nc(-c3ccc(O)c(O)c3)cs2)c1 | 10800 nM
COc1ccc(NC(=O)/C(C#N)=C\c2ccc(N3CCOCC3)o2)cc1 | 3760 nM
O=C(Nc1cccc(-c2cn3ccccc3n2)c1)c1cccc(Cl)c1 | 715 nM
O=C(Nc1nnc(SCc2ccc(F)cc2)s1)c1ccccn1 | 487 nM
Cc1cc2c(cc(C(=O)OCC(=O)NCc3ccco3)n2C)s1 | 6460 nM
Cc1ccc(C(c2cc(Cl)c3cccnc3c2O)N2CCN(C)CC2)cc1 (configuration not stated) | 704 nM
CCCCCCCCCCCCCCCC[n+]1cccc(C(=O)N(CC)CC)c1 | 6230 nM
O=C(CCc1ccccc1)NNC(=S)NC(=O)c1ccccc1 | 3130 nM
CC(C)CCOc1cccc(OCC(=O)Nc2ccncc2)c1 | 3220 nM
Cc1c2ccccc2nc2c(F)c(NCCO)c(F)c(F)c12 | > 16000 nM (inactive)
Oc1c(C(Nc2cccc(C(F)(F)F)c2)c2ccncc2)ccc2cccnc12 (configuration not stated) | 2440 nM
C=CCc1c(C)c(C#N)c2nc3ccccc3n2c1NCCN(C)C | 896 nM
Cc1ccc(Sc2ncccc2C(=O)NCc2cc([N+](=O)[O-])ccc2O)c(C)c1 | > 15000 nM (inactive)
